Results as given in patent US5484911A, “Nucleoside 5'-diphosphate conjugates of ether lipids” (Health Research, Inc., priority 1993, dated 1996).
Like-named read-outs stand apart in the source and are kept apart here.

What was measured:
[1] = Cytotoxicity to uninfected CEM cells (toxicity control of the anti-HIV assay); assay type: cell-based; conditions: human; for CC50: CEM cells, read-out: cytotoxicity (IC50); for CC50 at 144 h: uninfected CEM-IW cells, 6 days, XTT, Tables 1-4, read-out: 1C50(Molar) (cytotoxicity)
Source text: (§1) FIG. 3. Anti-HIV activity of AZTDP-DL-PTBA from the National Cancer Institute Developmental Therapeutics Program In-Vitro Testing Results; NSC 648540-S/1; Plate 5440; Lab 9N; SSPL:129N; Primary Screen Assay; Test Date, Jan. 21, 1992; Solubility Ind.: 1; Report Date, Apr. 27, 1992; Cell Line, CEM-IW; Solvent: Saline<0.9% (MEDIA).
as §1, with “4.” for “3.”, “AZddUDP-DL-PTBA” for “AZTDP-DL-PTBA”, “NSC: 648541-T/1;” for “NSC 648540-S/1;”, “5466;” for “5440;”, “SSPL: 129N;” for “SSPL:129N;”, “Line:” for “Line,”
(§2) FIG. 5. Anti-HIV activity of ddCDP-DL-PTBA from the National Cancer Institute Developmental Therapeutic Program In-Vitro Testing Results; NSC: D- 652872-A/1; Plate 24; Lab 9N; Primary Screen Assay; Test Date, Jul. 23, 1992; Solubility Ind.: 1; Report Date: Aug. 7, 1992; Cell Line: CEM-IW; Solvent: Saline<0.9% (MEDIA).
(§3) FIG. 6. Anti-HIV activity of AZTDP-DL-PMA from the National Cancer Institute Developmental Therapeutics Program In-Vitro Testing Results; NSC: D- 652873-C/1; Plate 24; Lab 9N; SSPL: 129N; Primary Screen Assay; Test Date, Jul. 23, 1992; Solubility Ind.: 1; Report Date, Sep. 11, 1992; Cell Line: CEM-IW; Solvent: Saline<0.9% (MEDIA).
(§4) The procedure is designed to detect agents acting at any stage of the virus reproductive cycle (Weislow, et al., J. Natl. Cancer Inst. 81, 577, 1989). The assay basically involves the killing of T4 lymphocytes by HIV. Small amounts of HIV are added to cells, and a complete cycle of virus reproduction is necessary to obtain the required cell killing. Agents that interact with virions, cells, or virus gene-products to interfere with viral activities will protect cells from cytolysis. Compounds that degenerate or are rapidly metabolized in the culture conditions may not show activity in this screen. All tests are compared with at least one positive (e.g., AZT-treated) control done at the same time under identical conditions.
(§5) Compound was dissolved in DMSO then diluted 1:100 in cell culture medium before preparing serial half-log10 dilutions. T4 lymphocytes (CEM cell line) were added and after a brief interval HIV-1 was added, resulting in a 1:200 final dilution of the compound. Uninfected cells with the compound served as a toxicity control, and infected and uninfected without the compound served as basic controls. Cultures were incubated at 37° C. in a 5% CO2 atmosphere for 6 days. The tetrazolium salt, XTT, was added to the wells, and cultures were incubated to allow formazan color development by viable cells. Individual wells were analyzed spectrophotometrically to quantitate formazan production, and in addition were viewed microscopically for detection of viable cells and confirmation of protective activity. Drug-treated virus-infected cells were compared with drug-treated noninfected cells and with other appropriate controls (untreated infected and untreated noninfected cells, drug-containing wells without cells, etc.) on the same plate. Data were reviewed in comparison with other tests done at the same time and a determination about activity was made.

HIV-1 [2] = experiment: microbe, parasite or virus in culture; assay type: cell-based; conditions: for Conclusion: NCI screen conclusion, Tables 1-4; for conclusion / reported as anti-HIV drug: NCI screening results
Source text: as §1
as §1, with “4.” for “3.”, “AZddUDP-DL-PTBA” for “AZTDP-DL-PTBA”, “NSC: 648541-T/1;” for “NSC 648540-S/1;”, “5466;” for “5440;”, “SSPL: 129N;” for “SSPL:129N;”, “Line:” for “Line,”
as §2, §3
Anti-HIV evaluation for the compounds was performed at the National Cancer Institute, National Institute of Health and is presented in FIGS. 3-6.
as §4, §5

HIV-1 [3] = conditions: cited from earlier work
in vivo = experiment: in vivo; parameters: species or system Female NIH-Swiss mice; conditions: mouse, ip, 100 mg/kg
Experimental: FIG. 7. Mouse serum concentration of AZT following administration of AZT or AZTDP-DL-PTBA Female NIH-Swiss mice weighing 25-30 g were administered i.p. with AZT (100 mg/kg) or AZTDP-DL-PTBA (394 mg/kg, equivalent to 100 mg/kg AZT). Three mice were sacrificed at the designated time (up to 24 hr) and AZT in the serum was analyzed by a HPLC method.
Female NIH-Swiss mice weighing 25-30 g were administered intraperitoneally (i.p.) with 394 mg/kg of AZTDP-DL-PTBA (equivalent to 100 mg/kg AZT). Three mice were sacrificed at the designated time (up to 24 hours) and AZT in the serum was analyzed by an HPLC method. […] The intact conjugate level in the serum was unable to be checked by the HPLC method.

HIV-infected CEM cells = conditions: liposomal, range over the compounds named, read-out: IC50, antiretroviral activity; cited from earlier work
HIV-infected U937 = conditions: liposomal, range over the compounds named, read-out: IC50, antiretroviral activity; cited from earlier work
[4] = Human immunodeficiency virus 1, CCRF-CEM, read-out: 50% of the protection (EC50)
[5] = Human immunodeficiency virus 1, CCRF-CEM, 144 h, read-out: EC50(Molar)

## CCCCCCCCCCCCCCCC(=O)OC(COCCCCCCCCCCCCCC)COP(=O)(O)OP(=O)(O)OC[C@H]1O[C@@H](n2cc(C)c(=O)[nH]c2=O)C[C@@H]1N=[N+]=[N-] (mixture of isomers) [AZTDP-DL-PMA, 3'-Azido-3'-deoxythymidine-5'-diphosphate-rac-1-O-tetradecyl-2-O-palmitoylglycerol]
[1]; uninfected cem cells, dose 1.80 × 10^-4 Molar (Table 4), read-out: UNINFECTED RESPONSE Percent of Control
  viability at 180 µM: 109%
[1]; uninfected cem cells, dose 5.70 × 10^-4 Molar (Table 4), read-out: UNINFECTED RESPONSE Percent of Control
  viability at 570 µM: 109%
[1]; uninfected cem cells, dose 5.70 × 10^-5 Molar (Table 4), read-out: UNINFECTED RESPONSE Percent of Control
  viability at 57 µM: 114%
[1]
  CC50: 14000 µM
  CC50 at 144 h: 14000 µM
HIV-1 [2]; [4]
  EC50: 57 µM
HIV-1 [2]; Human immunodeficiency virus 1, CCRF-CEM, dose 1.80 × 10^-4 Molar (Table 4), read-out: INFECTED RESPONSE Percent of Control
  viability at 180 µM: 66.8%
HIV-1 [2]; Human immunodeficiency virus 1, CCRF-CEM, dose 5.70 × 10^-4 Molar (Table 4), read-out: INFECTED RESPONSE Percent of Control
  viability at 570 µM: 90.7%
HIV-1 [2]; Human immunodeficiency virus 1, CCRF-CEM, dose 5.70 × 10^-5 Molar (Table 4), read-out: INFECTED RESPONSE Percent of Control
  viability at 57 µM: 55.8%
HIV-1 [2]
  Conclusion: CONFIRMED ACTIVE
  conclusion / reported as anti-HIV drug: moderate

## CCCCCCCCCCCCCCCCCCSCC(COP(=O)(O)OP(=O)(O)OC[C@H]1O[C@@H](n2ccc(=O)[nH]c2=O)C[C@@H]1N=[N+]=[N-])OC(=O)CCCCCCCCCCCCCCC (mixture of isomers) [AZddUDP-DL-PTBA, 3'-Azido-2',3'-dideoxyuridine-5'-diphosphate-rac-1-S-octadecyl-2-O-palmitoyl-1-thioglycerol]
[1]; uninfected cem cells, dose 1.80 × 10^-4 Molar (Tables 1, 2), read-out: UNINFECTED RESPONSE Percent of Control
  viability at 180 µM: 138%
[1]; uninfected cem cells, dose 1.80 × 10^-5 Molar (Tables 1, 2), read-out: UNINFECTED RESPONSE Percent of Control
  viability at 18 µM: 98.6%
[1]; uninfected cem cells, dose 1.80 × 10^-6 Molar (Tables 1, 2), read-out: UNINFECTED RESPONSE Percent of Control
  viability at 1.8 µM: 96.6%
[1]; uninfected cem cells, dose 5.80 × 10^-4 Molar (Tables 1, 2), read-out: UNINFECTED RESPONSE Percent of Control
  viability at 580 µM: 5.01%
[1]; uninfected cem cells, dose 5.80 × 10^-5 Molar (Tables 1, 2), read-out: UNINFECTED RESPONSE Percent of Control
  viability at 58 µM: 107%
[1]; uninfected cem cells, dose 5.80 × 10^-6 Molar (Tables 1, 2), read-out: UNINFECTED RESPONSE Percent of Control
  viability at 5.8 µM: 94.6%
[1]; uninfected cem cells, dose 5.80 × 10^-7 Molar (Tables 1, 2), read-out: UNINFECTED RESPONSE Percent of Control
  viability at 0.58 µM: 94.6%
[1]
  CC50: 390 µM
  CC50 at 144 h: 590 µM
HIV-1 [2]; [5]
  EC50: 59 µM
HIV-1 [2]; [4]
  EC50: 59 µM
HIV-1 [2]; Human immunodeficiency virus 1, CCRF-CEM, dose 1.80 × 10^-4 Molar (Tables 1, 2), read-out: INFECTED RESPONSE Percent of Control
  viability at 180 µM: 103%
HIV-1 [2]; Human immunodeficiency virus 1, CCRF-CEM, dose 1.80 × 10^-5 Molar (Tables 1, 2), read-out: INFECTED RESPONSE Percent of Control
  viability at 18 µM: 11.1%
HIV-1 [2]; Human immunodeficiency virus 1, CCRF-CEM, dose 1.80 × 10^-6 Molar (Tables 1, 2), read-out: INFECTED RESPONSE Percent of Control
  viability at 1.8 µM: 4.68%
HIV-1 [2]; Human immunodeficiency virus 1, CCRF-CEM, dose 5.80 × 10^-4 Molar (Tables 1, 2), read-out: INFECTED RESPONSE Percent of Control
  viability at 580 µM: 7.96%
HIV-1 [2]; Human immunodeficiency virus 1, CCRF-CEM, dose 5.80 × 10^-5 Molar (Tables 1, 2), read-out: INFECTED RESPONSE Percent of Control
  viability at 58 µM: 50.6%
HIV-1 [2]; Human immunodeficiency virus 1, CCRF-CEM, dose 5.80 × 10^-6 Molar (Tables 1, 2), read-out: INFECTED RESPONSE Percent of Control
  viability at 5.8 µM: 6.2%
HIV-1 [2]; Human immunodeficiency virus 1, CCRF-CEM, dose 5.80 × 10^-7 Molar (Tables 1, 2), read-out: INFECTED RESPONSE Percent of Control
  viability at 0.58 µM: 2.69%
HIV-1 [2]
  Conclusion: CONFIRMED ACTIVE
  conclusion / reported as anti-HIV drug: moderate

## CCCCCCCCCCCCCCCCCCSCC(COP(=O)(O)OP(=O)(O)OC[C@@H]1CC[C@H](n2ccc(N)nc2=O)O1)OC(=O)CCCCCCCCCCCCCCC (mixture of isomers) [ddCDP-DL-PTBA, 2',3'-Dideoxycytidine-5'-diphosphate-rac-1-S-octadecyl-2-O-palmitoyl-1-thioglycerol]
[1]; uninfected cem cells, dose 2.00 × 10^-4 Molar (Table 3), read-out: UNINFECTED RESPONSE Percent of Control
  viability at 200 µM: 137%
[1]; uninfected cem cells, dose 6.30 × 10^-4 Molar (Table 3), read-out: UNINFECTED RESPONSE Percent of Control
  viability at 630 µM: 125%
[1]; uninfected cem cells, dose 6.30 × 10^-5 Molar (Table 3), read-out: UNINFECTED RESPONSE Percent of Control
  viability at 63 µM: 130%
[1]
  CC50: 2800 µM
  CC50 at 144 h: 2800 µM
HIV-1 [2]; [5]
  EC50: 130 µM
HIV-1 [2]; [4]
  EC50: 130 µM
HIV-1 [2]; Human immunodeficiency virus 1, CCRF-CEM, dose 2.00 × 10^-4 Molar (Table 3), read-out: INFECTED RESPONSE Percent of Control
  viability at 200 µM: 78%
HIV-1 [2]; Human immunodeficiency virus 1, CCRF-CEM, dose 6.30 × 10^-4 Molar (Table 3), read-out: INFECTED RESPONSE Percent of Control
  viability at 630 µM: 98.7%
HIV-1 [2]; Human immunodeficiency virus 1, CCRF-CEM, dose 6.30 × 10^-5 Molar (Table 3), read-out: INFECTED RESPONSE Percent of Control
  viability at 63 µM: 10.2%
HIV-1 [2]
  Conclusion: CONFIRMED ACTIVE
  conclusion / reported as anti-HIV drug: moderate
HIV-1 [2]; ratio IC50/EC50, Tables 2-3
  TI50(IC/EC): 2.10 × 10^+1

## COCCCCCCCCCCCC(=O)O [13-Oxamyristic acid, 12-methoxydodecanoic acid]
HIV-1 [3]
  effectiveness among myristate analogs: the most effective
  reverse transcriptase activity, p24 levels, and syncytia formation: concentration-dependent decrease in reverse transcriptase activity, p24 levels, and syncytia formation

## Cc1cn([C@H]2C[C@H](N=[N+]=[N-])[C@@H](CO)O2)c(=O)[nH]c1=O [AZT, 3'-azido-3'-deoxythymidine, reference compound]
In vivo
  half-life: 18.6 min

## CCCCCCCCCCCCCC(=O)OCC(COP(=O)(O)OC[C@H]1O[C@@H](n2cc(C)c(=O)[nH]c2=O)C[C@@H]1N=[N+]=[N-])OC(=O)CCCCCCCCCCCCC (stereo partly shown) [Dimyristoyl-phosphatidylAZT]
HIV-infected CEM cells
  IC50: 1.7 to 22 µM
HIV-infected U937
  IC50: 0.2 to 12 µM

## CCCCCCCCCCCCCC(=O)OCC(COP(=O)(O)OC[C@@H]1CC[C@H](n2ccc(N)nc2=O)O1)OC(=O)CCCCCCCCCCCCC (stereo partly shown) [dimyristoylphosphatidylddC]
HIV-infected CEM cells
  IC50: 1.7 to 22 µM
HIV-infected U937
  IC50: 0.2 to 12 µM

## CCCCCCCCCCCCCC(=O)OCC(COP(=O)(O)OC[C@@H]1CC[C@H](n2cc(C)c(=O)[nH]c2=O)O1)OC(=O)CCCCCCCCCCCCC (stereo partly shown) [dimyristoylphosphatidylddT]
HIV-infected CEM cells
  IC50: 1.7 to 22 µM
HIV-infected U937
  IC50: 0.2 to 12 µM

## AZT dipalmitoylglycerol
HIV-infected CEM cells
  IC50: 1.7 to 22 µM
HIV-infected U937
  IC50: 0.2 to 12 µM
